Assay results as given in patent US20230085307A1, “PYRIDAZINONE COMPOUND AND HERBICIDE” (NISSAN CHEMICAL CORPORATION, priority 2019, published 2023).

How the values were obtained:
lambsquarters [1] = test: Test Example 4: herbicidal effect by soil treatment (Table 19, symbol O); type: in vivo, lambsquarters (Chenopodium album); details: amount of applied herbicide 320 g/ha
Source text: (§1) [Test Example 4] Herbicidal Effect Test by Soil Treatment
(§2) Sterilized diluvial soil was placed in a plastic box having a length of 21 cm, a width of 13 cm, and a depth of 7 cm. The seeds of each of southern crabgrass, green foxtail, barnyard grass, wild oat, blackgrass, Italian ryegrass, windgrass, velvetleaf, redroot pigweed, lambsquarters, chickweed, false cleavers, persian speedwell, corn, soybean, rice, wheat, beet, and rapeseed were sowed in a spot-like manner and covered with the soil having a thickness of about 1.5 cm. Subsequently, the emulsion agent of the compound of the present invention prepared according to Formulation Example 2 was diluted with water so as to achieve a predetermined herbicide amount, and the diluted emulsion agent was uniformly applied to the surface of the soil with a small-sized spray. The plastic box was placed in a greenhouse at 25° C. to 30° C. for growth of the plants. Three weeks after the herbicide application, the effect of the herbicide on each plant was evaluated according to the criteria of Test Example 1.

green foxtail [2] = test: Test Example 5: herbicidal effect by foliage application, plastic box (Table 20, symbol G); type: in vivo, green foxtail (Setaria viridis)
How it was run: (§3)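 Foliar spray test: emulsion formulation diluted in water to a set application rate, sprayed onto 14-day-old plants raised in diluvial soil at 25° C to 30° C under glass. Both herbicidal effect and crop effect rated visually three weeks later.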

barnyard grass [3] = test: Test Example 3: herbicidal effect by foliage application, Wagner pot (Table 18, symbol H); type: in vivo, barnyard grass (Echinochloa crus-galli)
How it was run: (§4)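 Plants were sown in alluvial soil held under 0.1–0.5 cm standing water and grown 14 days in a greenhouse at 25–30 °C. An emulsifiable formulation, water-diluted to the set dose, was then sprayed onto the foliage, and effects were scored three weeks later using previously defined criteria.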

barnyard grass [4] = test: Test Example 4: herbicidal effect by soil treatment (Table 19, symbol H); type: in vivo, barnyard grass (Echinochloa crus-galli); details: amount of applied herbicide 320 g/ha
Source text: as §1, §2

rice flat sedge = test: Test Example 3: herbicidal effect by foliage application, Wagner pot (Table 18, symbol E); type: in vivo, rice flat sedge (Cyperus iria)
How it was run: as §4

green foxtail [5] = test: Test Example 4: herbicidal effect by soil treatment (Table 19, symbol G); type: in vivo, green foxtail (Setaria viridis); details: amount of applied herbicide 320 g/ha
Source text: as §1, §2

velvetleaf [6] = test: Test Example 4: herbicidal effect by soil treatment (Table 19, symbol M); type: in vivo, velvetleaf (Abutilon theophrasti); details: amount of applied herbicide 320 g/ha
Source text: as §1, §2

southern crabgrass [7] = test: Test Example 5: herbicidal effect by foliage application, plastic box (Table 20, symbol F); type: in vivo, southern crabgrass (Digitaria ciliaris)
How it was run: as §3

lambsquarters [8] = test: Test Example 5: herbicidal effect by foliage application, plastic box (Table 20, symbol O); type: in vivo, lambsquarters (Chenopodium album)
How it was run: as §3

redroot pigweed [9] = test: Test Example 5: herbicidal effect by foliage application, plastic box (Table 20, symbol N); type: in vivo, redroot pigweed (Amaranthus retroflexus)
Source text: (§5) [Test Example 5] Herbicidal Effect Test by Foliage Application
as §2, with “Thereafter, the plants were grown in a greenhouse at 25° C. to 30° C. After 14-day growth of the plants,” for “Subsequently,”, “a foliage part” for “the surface of the soil”, “spray.” for “spray. The plastic box was placed in a greenhouse at 25° C. to 30° C. for growth of the plants.”

Chinese sprangletop = test: Test Example 3: herbicidal effect by foliage application, Wagner pot (Table 18, symbol D); type: in vivo, chinese sprangletop (Leptochloa chinensis)
How it was run: as §4

redroot pigweed [10] = test: Test Example 4: herbicidal effect by soil treatment (Table 19, symbol N); type: in vivo, redroot pigweed (Amaranthus retroflexus); details: amount of applied herbicide 320 g/ha
Source text: as §1, §2

velvetleaf [11] = test: Test Example 5: herbicidal effect by foliage application, plastic box (Table 20, symbol M); type: in vivo, velvetleaf (Abutilon theophrasti)
How it was run: as §3

barnyard grass [12] = test: Test Example 5: herbicidal effect by foliage application, plastic box (Table 20, symbol H); type: in vivo, barnyard grass (Echinochloa crus-galli)
How it was run: as §3

southern crabgrass [13] = test: Test Example 4: herbicidal effect by soil treatment (Table 19, symbol F); type: in vivo, southern crabgrass (Digitaria ciliaris); details: amount of applied herbicide 320 g/ha
Source text: as §1, §2

wild oat = test: Test Example 5: herbicidal effect by foliage application, plastic box (Table 20, symbol I); type: in vivo, wild oat (Avena fatua)
How it was run: as §3

blackgrass = test: Test Example 5: herbicidal effect by foliage application, plastic box (Table 20, symbol J); type: in vivo, blackgrass (Alopecurus myosuroides)
How it was run: as §3

persian speedwell = test: Test Example 5: herbicidal effect by foliage application, plastic box (Table 20, symbol R); type: in vivo, Persian speedwell (Veronica persica); details: foliage application, 99 g/ha, three weeks after application
How it was run: as §3

chickweed = test: Test Example 5: herbicidal effect by foliage application, plastic box (Table 20, symbol P); type: in vivo, common chickweed (Stellaria media)
Source text: as §5
as §2, with “Thereafter, the plants were grown in a greenhouse at 25° C. to 30° C. After 14-day growth of the plants,” for “Subsequently,”, “a foliage part” for “the surface of the soil”, “spray.” for “spray. The plastic box was placed in a greenhouse at 25° C. to 30° C. for growth of the plants.”

Italian ryegrass = test: Test Example 5: herbicidal effect by foliage application, plastic box (Table 20, symbol K); type: in vivo, Italian ryegrass (Lolium multiflorum)
How it was run: as §3

windgrass = test: Test Example 5: herbicidal effect by foliage application, plastic box (Table 20, symbol L); type: in vivo, windgrass (Apera spica-venti); details: amount of applied herbicide 320 g/ha; foliage application after 14-day growth; evaluated three weeks after application
How it was run: as §3

[14] = foliage application, 320 g/ha, three weeks after application
[15] = amount of applied herbicide 320 g/ha
[16] = foliage application, 99 g/ha, three weeks after application
[17] = amount of applied herbicide 320 g/ha, foliage application after 14-day growth, evaluated three weeks after application

Cc1nn(C)c(=O)c(-c2c(-c3ccc(OC(F)(F)F)cc3)sc3ccc(Cl)cc23)c1O [2-457]
herbicidal effect, O: lambsquarters (lambsquarters [1]): 2 (Herbicidal rate of 20% or more and less than 40%) | G: green foxtail, herbicidal effect grade (green foxtail [2]; [14]): 3 (Herbicidal rate of 40% or more and less than 70%) | herbicidal effect on H: barnyard grass (barnyard grass [3]; [15]): 5 (Herbicidal rate of 90% or more (almost completely withered)) | herbicidal effect, H: barnyard grass (barnyard grass [4]): 0 (Herbicidal rate of 5% or less (almost no effect)) | herbicidal effect on E: rice flat sedge (rice flat sedge; [15]): 5 (Herbicidal rate of 90% or more (almost completely withered)) | herbicidal effect, G: green foxtail (green foxtail [5]): 0 (Herbicidal rate of 5% or less (almost no effect)) | herbicidal effect, M: velvetleaf (velvetleaf [6]): 1 (Herbicidal rate of 5% or more and less than 20%) | F: southern crabgrass, herbicidal effect grade (southern crabgrass [7]; [14]): 3 (Herbicidal rate of 40% or more and less than 70%) | O: lambsquarters, herbicidal effect grade (lambsquarters [8]; [14]): 5 (Herbicidal rate of 90% or more (almost completely withered)) | N: redroot pigweed, herbicidal effect grade (redroot pigweed [9]; [14]): 4 (Herbicidal rate of 70% or more and less than 90%) | herbicidal effect on D: Chinese sprangletop (Chinese sprangletop; [15]): 3 (Herbicidal rate of 40% or more and less than 70%) | herbicidal effect, N: redroot pigweed (redroot pigweed [10]): 3 (Herbicidal rate of 40% or more and less than 70%) | M: velvetleaf, herbicidal effect grade (velvetleaf [11]; [14]): 3 (Herbicidal rate of 40% or more and less than 70%) | H: barnyard grass, herbicidal effect grade (barnyard grass [12]; [14]): 5 (Herbicidal rate of 90% or more (almost completely withered)) | herbicidal effect, F: southern crabgrass (southern crabgrass [13]): 0 (Herbicidal rate of 5% or less (almost no effect))

COc1c(C)cccc1-c1sc2ccccc2c1-c1c(O)c(C)nn(C)c1=O [1-067]
herbicidal effect grade, I: wild oat (wild oat; [16]): 0 (Herbicidal rate of 5% or less (almost no effect)) | herbicidal effect grade, J: blackgrass (blackgrass; [16]): 0 (Herbicidal rate of 5% or less (almost no effect)) | herbicidal effect grade, G: green foxtail (green foxtail [2]; [16]): 0 (Herbicidal rate of 5% or less (almost no effect)) | herbicidal effect on H (barnyard grass), rating 0-5 (barnyard grass [3]; 99 g/ha): 3 (Herbicidal rate of 40% or more and less than 70%) | herbicidal effect on E (rice flat sedge), rating 0-5 (rice flat sedge; 99 g/ha): 0 (Herbicidal rate of 5% or less (almost no effect)) | herbicidal effect grade, F: southern crabgrass (southern crabgrass [7]; [16]): 0 (Herbicidal rate of 5% or less (almost no effect)) | herbicidal effect grade, O: lambsquarters (lambsquarters [8]; [16]): 0 (Herbicidal rate of 5% or less (almost no effect)) | herbicidal effect grade, N: redroot pigweed (redroot pigweed [9]; [16]): 1 (Herbicidal rate of 5% or more and less than 20%) | herbicidal effect on D (Chinese sprangletop), rating 0-5 (Chinese sprangletop; 99 g/ha): 0 (Herbicidal rate of 5% or less (almost no effect)) | herbicidal effect grade, M: velvetleaf (velvetleaf [11]; [16]): 2 (Herbicidal rate of 20% or more and less than 40%) | herbicidal effect grade, R: persian speedwell (persian speedwell): 0 (Herbicidal rate of 5% or less (almost no effect)) | herbicidal effect grade, P: chickweed (chickweed; [16]): 2 (Herbicidal rate of 20% or more and less than 40%) | herbicidal effect grade, H: barnyard grass (barnyard grass [12]; [16]): 0 (Herbicidal rate of 5% or less (almost no effect)) | herbicidal effect grade, K: Italian ryegrass (Italian ryegrass; [16]): 0 (Herbicidal rate of 5% or less (almost no effect))

CCCC(=O)Oc1c(C)nn(C)c(=O)c1-c1c(-c2ccccc2OCOC)sc2c(Cl)cccc12 [4-084]
Herbicidal effect by foliage application, L: windgrass (windgrass): 0 (Herbicidal rate of 5% or less (almost no effect)) | Herbicidal effect by foliage application, I: wild oat (wild oat; [17]): 0 (Herbicidal rate of 5% or less (almost no effect)) | Herbicidal effect by foliage application, J: blackgrass (blackgrass; [17]): 0 (Herbicidal rate of 5% or less (almost no effect)) | Herbicidal effect by foliage application, G: green foxtail (green foxtail [2]; [17]): 2 (Herbicidal rate of 20% or more and less than 40%) | herbicidal effect on barnyard grass (H) (barnyard grass [3]; 320 g/ha): 5 (Herbicidal rate of 90% or more (almost completely withered)) | herbicidal effect on rice flat sedge (E) (rice flat sedge; 320 g/ha): 4 (Herbicidal rate of 70% or more and less than 90%) | Herbicidal effect by foliage application, F: southern crabgrass (southern crabgrass [7]; [17]): 3 (Herbicidal rate of 40% or more and less than 70%) | Herbicidal effect by foliage application, O: lambsquarters (lambsquarters [8]; [17]): 0 (Herbicidal rate of 5% or less (almost no effect)) | Herbicidal effect by foliage application, N: redroot pigweed (redroot pigweed [9]; [17]): 5 (Herbicidal rate of 90% or more (almost completely withered)) | herbicidal effect on Chinese sprangletop (D) (Chinese sprangletop; 320 g/ha): 4 (Herbicidal rate of 70% or more and less than 90%) | Herbicidal effect by foliage application, M: velvetleaf (velvetleaf [11]; [17]): 4 (Herbicidal rate of 70% or more and less than 90%) | Herbicidal effect by foliage application, P: chickweed (chickweed; [17]): 4 (Herbicidal rate of 70% or more and less than 90%) | Herbicidal effect by foliage application, H: barnyard grass (barnyard grass [12]; [17]): 3 (Herbicidal rate of 40% or more and less than 70%) | Herbicidal effect by foliage application, K: Italian ryegrass (Italian ryegrass; [17]): 0 (Herbicidal rate of 5% or less (almost no effect))
